From patent publication US20200352201A1, “METHOD OF VACUUM […] WITH PEROXYC[…] SOLUTIONS” (ZEE COMPANY, INC., priority 2019, published 2020)

What was measured:
[1] = Vacuum infusing boneless beef parts, organoleptic shelf life of the ground product; settings: vacuum tumbled about 15 minutes at about -0.4 bar, stored at about 4° C., first failure of duplicates
Procedure: Samples of beef in an amount of about 1 pound were prepared from boneless beef parts. Each sample was provided in a vacuum container of a vacuum tumbler in the presence of the antimicrobial solution (peroxyacetic acid (“PAA”) or peroxylactic acid (“PLA”)) provided in Table 2, with the control subjected to the same volume of sterile water. The pressure was reduced in the vacuum tumbler to about −0.4 bar, and the contents were rotated in the vacuum-tumbler while under pressure for a period of time of about 15 minutes. Pressure was then returned to atmospheric pressure and the contents of the vacuum container were subjected to grinding and then stored in a sealed plastic bag at about 4° C. The ground product was evaluated daily for appearance and order until reaching failure by abnormal coloration and/or odor. The Control and each microbial concentration sample was performed in duplicate, with the first date of organoleptic failure for the duplicate samples reported in Table 1.

[2] = Vacuum infusing boneless poultry parts, organoleptic shelf life of the ground product; settings: vacuum tumbled about 15 minutes at about -0.4 bar, stored at about 4° C., first failure of duplicates
Procedure: Samples of poultry in an amount of about 1 pound were prepared from boneless poultry parts. Each sample was provided in a vacuum container of a vacuum tumbler in the presence of the antimicrobial solution (peroxyacetic acid (“PAA”) or peroxylactic acid (“PLA”)) provided in Table 1, with the control subjected to the same volume of sterile water. The pressure was reduced in the vacuum tumbler to about −0.4 bar, and the contents were rotated in the vacuum-tumbler while under pressure for a period of time of about 15 minutes. Pressure was then returned to atmospheric pressure and the contents of the vacuum container were subjected to grinding and then stored in a sealed plastic bag at about 4° C. The ground product was evaluated daily for appearance and order until reaching failure by abnormal coloration and/or odor. The Control and each microbial concentration sample was performed in duplicate, with the first date of organoleptic failure for the duplicate samples reported in Table 1.

| Compound | Days to Organoleptic Failure ([1]; 100 ppm) | Days to Organoleptic Failure ([1]; 250 ppm) | Days to Organoleptic Failure ([1]; 500 ppm) | Days to Organoleptic Failure ([1]; 1000 ppm) | Days to Organoleptic Failure ([2]; 100 ppm) | Days to Organoleptic Failure ([2]; 250 ppm) | Days to Organoleptic Failure ([2]; 500 ppm) | Days to Organoleptic Failure ([2]; 1000 ppm) |
| --- | --- | --- | --- | --- | --- | --- | --- | --- |
| CC(O)C(=O)OO (stereo not shown) [PLA, peroxylactic acid] | 11 days | 13 days | 15 days | 17 days | 11 days | 14 days | 16 days | 19 days |
| peroxyacetic acid [PAA] | 11 days | 13 days | 15 days | 17 days | 11 days | 13 days | 17 days | 19 days |
